Data taken from BigSolDB 2.1.

CC1(C)O[C@@H]2[C@@H](CO[C@@]3(COS(N)(=O)=O)OC(C)(C)O[C@@H]23)O1
solubility (mole fraction)
Conditions | 278.15 K | 283.15 K | 288.15 K | 293.15 K | 298.15 K | 303.15 K | 308.15 K | 313.15 K | 318.15 K | 323.15 K
in 2-butoxyethanol | 0.0541 | 0.0602 | 0.0676 | 0.0756 | 0.0849 | 0.0986 | 0.111 | 0.124 | 0.14 | 0.157
in 2-ethoxyethanol | 0.11 | 0.118 | 0.126 | 0.137 | 0.149 | 0.162 | 0.173 | 0.191 | 0.209 | 0.229
in 2-methoxyethanol | 0.149 | 0.156 | 0.165 | 0.176 | 0.187 | 0.198 | 0.212 | 0.228 | 0.245 | 0.263
in 2-propoxyethanol | 0.0726 | 0.0803 | 0.089 | 0.0981 | 0.109 | 0.121 | 0.134 | 0.15 | 0.167 | 0.187
in ethanol | 0.0169 | 0.0202 | 0.0252 | 0.0315 | 0.039 | 0.0478 | 0.0628 | 0.079 | 0.102 | 0.129
in isobutanol | 0.00375 | 0.004 | 0.00525 | 0.00684 | 0.00911 | 0.0121 | 0.0166 | 0.0225 | 0.0314 | 0.0441
in isopentanol | 0.00308 | 0.00401 | 0.0052 | 0.00684 | 0.00905 | 0.0119 | 0.0147 | 0.0197 | 0.0261 | 0.0353
in isopropanol | 0.00638 | 0.00814 | 0.0106 | 0.014 | 0.0186 | 0.0247 | 0.0299 | 0.0408 | 0.0594 | 0.0818
in methanol | 0.0401 | 0.0476 | 0.0569 | 0.0683 | 0.081 | 0.0951 | 0.112 | 0.131 | 0.148 | 0.174
in n-butanol | 0.00495 | 0.00629 | 0.00804 | 0.0103 | 0.0131 | 0.0172 | 0.0231 | 0.0298 | 0.0397 | 0.0538
in n-heptanol | 0.00256 | 0.00327 | 0.00425 | 0.0054 | 0.00686 | 0.00877 | 0.0116 | 0.015 | 0.0196 | 0.0256
in n-hexanol | 0.0029 | 0.00363 | 0.00496 | 0.00628 | 0.00807 | 0.0104 | 0.0138 | 0.018 | 0.0236 | 0.0312
in n-pentanol | 0.00373 | 0.00472 | 0.00601 | 0.00747 | 0.00969 | 0.0126 | 0.0157 | 0.0207 | 0.0272 | 0.0367
in n-propanol | 0.00715 | 0.00923 | 0.0116 | 0.0148 | 0.0187 | 0.0252 | 0.0333 | 0.0439 | 0.0591 | 0.0794
